Legend:
Assay type in all cases: in vivo
[1] = tested on: Pseudoperonospora cubensis (downy mildew); assay: Greenhouse Test 1, foliar spray fungicide screen (DOWN MDEW), host squash; details: disease control rating, 400 ppm (+++ at 100 ppm)
[2] = tested on: melon aphids (Aphis gossypii Glover); assay: Mite/insect screen, sprayed squash cotyledons (MA); details: percent mortality; for mortality at 200 ppm / mortality at 400 ppm: Aphis gossypii, read-out: MA RESULTS %; for mortality at 400 ppm: spray rate 400 ppm
How it was run: (§1)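 Water-diluted formulations of each compound (acetone/alcohol 50:50 with 23 g/L and 13 g/L emulsifier blends) are sprayed over both leaf faces to runoff. After a standard exposure period, percent kill and phytotoxicity are recorded.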

[3] = tested on: Cercospora beticola (leaf spot); assay: Greenhouse Test 1, foliar spray fungicide screen (LEAF SPOT), host sugar beet; details: disease control rating, 400 ppm (+++ at 100 ppm)
[4] = tested on: southern armyworm (Spodopetra eridania Cramer); assay: Mite/insect screen, sprayed squash leaves (SAW); details: Spodoptera eridania, percent mortality, read-out: SAW RESULTS %; for mortality at 200 ppm: spray rate 200 ppm; for mortality at 400 ppm: spray rate 400 ppm
How it was run: as §1

white apple leafhopper = assay: Mite and insect field trials; details: plant: apples
Protocol: (§2) 4-[2-[4-(t-butyl)phenyl]ethoxy]quinazoline and 4-[2-(1,1'-biphenyl)-4 biphenyl)-4-ylethoxy]quinazoline were evaluated against a variety of mite and insect species in field trials.

black citrus aphid = assay: Mite and insect field trials; details: plant: lemon
Protocol: as §2

green peach aphid = assay: Mite and insect field trials
Protocol: as §2

green cloverworm = assay: Mite and insect field trials; details: plant: alfalfa (Lucerne)
Protocol: as §2

apple rust mite = assay: Mite and insect field trials; details: plant: apples
Protocol: as §2

Dawson-hop aphid = assay: Mite and insect field trials; details: plant: hops
Protocol: as §2

potato aphid = assay: Mite and insect field trials; details: plant: turnip
Protocol: as §2

wheat aphid = assay: Mite and insect field trials; details: plant: wheat
Protocol: as §2

bean aphid = assay: Mite and insect field trials; details: plant: bean, faba broad
Protocol: as §2

pea aphid = assay: Mite and insect field trials
Protocol: as §2

twospotted spider mite = assay: Mite and insect field trials
Protocol: as §2

greenhouse thrips = assay: Mite and insect field trials; details: plant: azaleas
Protocol: as §2

potato leafhopper = assay: Mite and insect field trials; details: plant: alfalfa (Lucerne)
Protocol: as §2

glasshouse whitefly = assay: Mite and insect field trials; details: tested on tomato
Protocol: as §2

yellow hickory aphid = assay: Mite and insect field trials; details: plant: pecan nut
Protocol: as §2

European red mite = assay: Mite and insect field trials; details: plant: apples
Protocol: as §2

grape thrips = assay: Mite and insect field trials; details: plant: grape (European)
Protocol: as §2

cotton aphid = assay: Mite and insect field trials; details: plant: cotton
Protocol: as §2

tarnished plant bug = assay: Mite and insect field trials; details: plant: alfalfa (Lucerne)
Protocol: as §2

apple aphid = assay: Mite and insect field trials; details: plant: apples
Protocol: as §2

grape leafhopper = assay: Mite and insect field trials; details: plant: grape (European)
Protocol: as §2

thrips = assay: Mite and insect field trials; details: plant: privet
Protocol: as §2

rosy apple aphid = assay: Mite and insect field trials; details: plant: apples
Protocol: as §2

cereal aphid = assay: Mite and insect field trials; details: plant: barley
Protocol: as §2

[5] = tested on: Erysiphe graminis tritici (powdery mildew); assay: Greenhouse Test 1, foliar spray fungicide screen (POWD MDEW), host wheat; details: disease control rating, 400 ppm (+++ at 100 ppm)
[6] = tested on: Venturia inaequalis (apple scab); assay: Greenhouse Test 1, foliar spray fungicide screen (APPL SCAB), host apple seedling; details: disease control rating, 400 ppm (+++ at 100 ppm)
[7] = tested on: Septoria tritici (leaf blotch); assay: Greenhouse Test 1, foliar spray fungicide screen (LEAF BLOT), host wheat; details: disease control rating, 400 ppm (+++ at 100 ppm)
[8] = tested on: Puccinia recondita tritici (leaf rust); assay: Greenhouse Test 1, foliar spray fungicide screen (LEAF RUST), host wheat; details: disease control rating, 400 ppm (+++ at 100 ppm)
[9] = tested on: Pyricularia oryzae (rice blast); details: disease control rating, foliar spray, host rice; 400 ppm (+++ at 100 ppm)
[10] = tested on: Botrytis cinerea (gray mold); assay: Greenhouse Test 1, foliar spray fungicide screen (GRAY MOLD), host grape berries; details: disease control rating, 400 ppm (+++ at 100 ppm)
[11] = tested on: Southern corn rootworm (Diabrotica undecimpuctata howardi Barber); assay: Mite/insect screen, soil treatment (CRW); details: percent mortality, soil treatment; for mortality at 12 ppm / mortality at 24 ppm: Diabrotica, read-out: CRW RESULTS %; for mortality at 24 ppm: CRW rate 24.00 ppm
How it was run: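 Five 2–3 instar larvae were placed on dry sandy soil with a presoaked corn seed after the soil had received 1 mL of compound solution and dried 6–12 h; cups were kept capped at 23°C. Mortality (%) and phytotoxicity were read after standard exposure. Formulation: acetone/alcohol with emulsifiers, water-diluted.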

[12] = tested on: Twospotted spider mites (Tetranychus urticae Koch); assay: Mite/insect screen, sprayed squash cotyledons (SM); details: percent mortality; for mortality at 200 ppm / mortality at 400 ppm: Tetranychus urticae, read-out: SM RESULTS %; for mortality at 400 ppm: spray rate 400 ppm
How it was run: as §1

Plasmopara viticola = assay: Fungicide field tests; details: crop: grape
Excerpt: (§3) Selected compounds were field tested on various crops against a variety of pathogens. […]

Pyrenophora teres = assay: Fungicide field tests; details: crop: barley
Excerpt: as §3

Septoria nodorum = assay: Fungicide field tests; details: crop: wheat
Excerpt: as §3

Alternaria brassicae = assay: Fungicide field tests; details: crop: rape
Excerpt: as §3

[13] = tested on: Pseudocercosporella herpotrichoides; assay: Fungicide field tests; details: crop: wheat
Excerpt: as §3

Sphaerotheca fuliginea = assay: Fungicide field tests; details: crop: cucumber
Excerpt: as §3

Podosphaera leucotricha = assay: Fungicide field tests; details: crop: apple
Excerpt: as §3

Rhynchosporium secalis = assay: Fungicide field tests; details: crop: barley
Excerpt: as §3

Uncinula necator = assay: Fungicide field tests; details: crop: grapes
Excerpt: as §3

[14] = tested on: Erysiphe graminis tritici; assay: Fungicide field tests; details: crop: wheat
Excerpt: as §3

Erysiphe graminis hordei = assay: Fungicide field tests; details: crop: barley
Excerpt: as §3

Phytophthora infestans = details: crop: potato

c1ccc(-c2ccc(CCOc3ncnc4ccccc34)cc2)cc1 [Example 85, 4-[2-(1,1'-biphenyl)-4-ylethoxy]quinazoline]
DOWN MDEW [1]: +++ (+++ = 90-100% control at 100 ppm)
mortality at 200 ppm ([2]; spray rate 200 ppm): 100%
mortality at 400 ppm [2]: 100%
LEAF SPOT [3]: - (- = 0-19% control at 400 ppm)
mortality at 200 ppm [4]: 10%
mortality at 400 ppm [4]: 80%
mite or insect species against which they showed activity in field trials (white apple leafhopper): white apple leafhopper
mite or insect species against which they showed activity in field trials (black citrus aphid): black citrus aphid
mite or insect species against which they showed activity in field trials (green peach aphid; plant: apples): green peach aphid
mite or insect species against which they showed activity in field trials (green peach aphid; plant: sugar beet): green peach aphid
mite or insect species against which they showed activity in field trials (green cloverworm): green cloverworm
mite or insect species against which they showed activity in field trials (apple rust mite): apple rust mite
mite or insect species against which they showed activity in field trials (Dawson-hop aphid): Dawson-hop aphid
mite or insect species against which they showed activity in field trials (potato aphid): potato aphid
mite or insect species against which they showed activity in field trials (wheat aphid): wheat aphid
mite or insect species against which they showed activity in field trials (bean aphid): bean aphid
mite or insect species against which they showed activity in field trials (pea aphid; plant: alfalfa (Lucerne)): pea aphid
mite or insect species against which they showed activity in field trials (pea aphid; plant: pea, garden (English)): pea aphid
mite or insect species against which they showed activity in field trials (twospotted spider mite; plant: azaleas): twospotted spider mite
mite or insect species against which they showed activity in field trials (twospotted spider mite; plant: broccoli): twospotted spider mite
mite or insect species against which they showed activity in field trials (twospotted spider mite; plant: plum (Japanese)): twospotted spider mite
mite or insect species against which they showed activity in field trials (greenhouse thrips): greenhouse thrips
mite or insect species against which they showed activity in field trials (potato leafhopper): potato leafhopper
activity against glasshouse whitefly in field trials (glasshouse whitefly): showing activity
mite or insect species against which they showed activity in field trials (yellow hickory aphid): yellow hickory aphid
mite or insect species against which they showed activity in field trials (European red mite): European red mite
mite or insect species against which they showed activity in field trials (grape thrips): grape thrips
mite or insect species against which they showed activity in field trials (cotton aphid): cotton aphid
mite or insect species against which they showed activity in field trials (tarnished plant bug): tarnished plant bug
mite or insect species against which they showed activity in field trials (apple aphid): apple aphid
mite or insect species against which they showed activity in field trials (grape leafhopper): grape leafhopper
mite or insect species against which they showed activity in field trials (thrips): thrips
mite or insect species against which they showed activity in field trials (rosy apple aphid): rosy apple aphid
mite or insect species against which they showed activity in field trials (cereal aphid): cereal aphid
POWD MDEW [5]: ++ (++ = 90-100% control at 400 ppm)
APPL SCAB [6]: - (- = 0-19% control at 400 ppm)
LEAF BLOT [7]: +++ (+++ = 90-100% control at 100 ppm)
LEAF RUST [8]: +++ (+++ = 90-100% control at 100 ppm)
RICE BLAST [9]: + (+ = 20-89% control at 400 ppm)
GRAY MOLD [10]: - (- = 0-19% control at 400 ppm)
mortality at 12 ppm ([11]; CRW rate 12.00 ppm): 0%
mortality at 24 ppm [11]: 0%
mortality at 200 ppm ([12]; spray rate 200 ppm): 100%
mortality at 400 ppm [12]: 100%

c1ccc2cc(CCNc3ncnc4ccccc34)ccc2c1 [Example 53, N-[2-(2-naphthyl)ethyl]-4-quinazolinamine]
DOWN MDEW [1]: +++ (+++ = 90-100% control at 100 ppm)
mortality at 200 ppm ([2]; spray rate 200 ppm): 0%
MA RESULTS % ([2]; spray rate 200 ppm): 0%
LEAF SPOT [3]: - (- = 0-19% control at 400 ppm)
POWD MDEW [5]: +++ (+++ = 90-100% control at 100 ppm)
APPL SCAB [6]: + (+ = 20-89% control at 400 ppm)
LEAF BLOT [7]: +++ (+++ = 90-100% control at 100 ppm)
LEAF RUST [8]: +++ (+++ = 90-100% control at 100 ppm)
pathogen against which compound demonstrated activity in field tests (Plasmopara viticola): Plasmopara viticola
pathogen against which compound demonstrated activity in field tests (Pyrenophora teres): Pyrenophora teres
pathogen against which compound demonstrated activity in field tests (Septoria nodorum): Septoria nodorum
pathogen against which compound demonstrated activity in field tests (Alternaria brassicae): Alternaria brassicae
pathogen against which compound demonstrated activity in field tests [13]: Pseudocercosporella herpotrichoides
pathogen against which compound demonstrated activity in field tests (Sphaerotheca fuliginea): Sphaerotheca fuliginea
pathogen against which compound demonstrated activity in field tests (Podosphaera leucotricha): Podosphaera leucotricha
pathogen against which compound demonstrated activity in field tests (Rhynchosporium secalis): Rhynchosporium secalis
pathogen against which compound demonstrated activity in field tests (Uncinula necator): Uncinula necator
pathogen against which compound demonstrated activity in field tests [14]: Erysiphe graminis tritici
pathogen against which compound demonstrated activity in field tests (Erysiphe graminis hordei): Erysiphe graminis hordei
RICE BLAST [9]: +++ (+++ = 90-100% control at 100 ppm)
GRAY MOLD [10]: - (- = 0-19% control at 400 ppm)
mortality at 12 ppm ([11]; CRW rate 12.00 ppm): 0%
CRW RESULTS % ([11]; CRW rate 12.00 ppm): 0%
mortality at 200 ppm ([12]; spray rate 200 ppm): 0%
SM RESULTS % ([12]; spray rate 200 ppm): 0%

Clc1ccc(CCOc2ncnc3ccccc23)cc1 [Example 5, 4-[2-(4-chlorophenyl)ethoxy]quinazoline]
DOWN MDEW [1]: + (+ = 20-89% control at 400 ppm)
mortality at 200 ppm ([2]; spray rate 200 ppm): 100%
mortality at 400 ppm [2]: 100%
LEAF SPOT [3]: +++ (+++ = 90-100% control at 100 ppm)
mortality at 200 ppm [4]: 20%
mortality at 400 ppm [4]: 0%
POWD MDEW [5]: +++ (+++ = 90-100% control at 100 ppm)
APPL SCAB [6]: +++ (+++ = 90-100% control at 100 ppm)
LEAF BLOT [7]: ++ (++ = 90-100% control at 400 ppm)
LEAF RUST [8]: +++ (+++ = 90-100% control at 100 ppm)
pathogen against which compound demonstrated activity in field tests (Plasmopara viticola): Plasmopara viticola
pathogen against which compound demonstrated activity in field tests (Phytophthora infestans): Phytophthora infestans
RICE BLAST [9]: +++ (+++ = 90-100% control at 100 ppm)
GRAY MOLD [10]: - (- = 0-19% control at 400 ppm)
mortality at 12 ppm ([11]; CRW rate 12.00 ppm): 0%
mortality at 24 ppm [11]: 0%
mortality at 200 ppm ([12]; spray rate 200 ppm): 100%
mortality at 400 ppm [12]: 50%

Source: patent publication EP0326329B1, “Quinazoline derivatives useful as insecticides” (Dow AgroSciences LLC, priority 1988, dated 1989)
